Assay results: PubChem BioAssay (NCI)
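The compound was tested at five concentrations on cells cultured in 96-well plates, with a 48-hour exposure period. At the GI50, growth is halved. TGI marks complete inhibition of growth.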

Assays:
Assay in all cases: growth of human tumour cells (NCI), 48 h
U251 CNS = tested on: U251 CNS
RPMI-8226 leukemia = tested on: RPMI-8226 leukemia
NCI-H226 lung = tested on: NCI-H226 lung
RXF 393 renal = tested on: RXF 393 renal
NCI/ADR-RES ovarian = tested on: NCI/ADR-RES ovarian
SK-OV-3 ovarian = tested on: SK-OV-3 ovarian
SK-MEL-5 melanoma = tested on: SK-MEL-5 melanoma
M14 melanoma = tested on: M14 melanoma
HCC-2998 colon = tested on: HCC-2998 colon
SK-MEL-2 melanoma = tested on: SK-MEL-2 melanoma
COLO 205 colon = tested on: COLO 205 colon
MCF7 breast = tested on: MCF7 breast
MDA-MB-435 = tested on: MDA-MB-435
NCI-H460 lung = tested on: NCI-H460 lung
KM12 colon = tested on: KM12 colon
T-47D breast = tested on: T-47D breast
OVCAR-5 ovarian = tested on: OVCAR-5 ovarian
SN12C renal = tested on: SN12C renal
HOP-92 NSCLC = tested on: HOP-92 NSCLC
IGROV1 ovarian = tested on: IGROV1 ovarian
UACC-62 melanoma = tested on: UACC-62 melanoma
HT29 colon = tested on: HT29 colon
SNB-19 CNS = tested on: SNB-19 CNS
BT-549 breast = tested on: BT-549 breast
NCI-H522 lung = tested on: NCI-H522 lung
SF-268 CNS = tested on: SF-268 CNS
PC-3 prostate = tested on: PC-3 prostate
786-0 renal = tested on: 786-0 renal
K-562 leukemia = tested on: K-562 leukemia
SF-539 CNS = tested on: SF-539 CNS
OVCAR-4 ovarian = tested on: OVCAR-4 ovarian
SF-295 CNS = tested on: SF-295 CNS
UACC-257 melanoma = tested on: UACC-257 melanoma
UO-31 renal = tested on: UO-31 renal
SR leukemia = tested on: SR leukemia
SNB-75 CNS = tested on: SNB-75 CNS
OVCAR-8 ovarian = tested on: OVCAR-8 ovarian
HL-60(TB) leukemia = tested on: HL-60(TB) leukemia
MALME-3M melanoma = tested on: MALME-3M melanoma
SK-MEL-28 melanoma = tested on: SK-MEL-28 melanoma
A498 renal = tested on: A498 renal
HS 578T breast = tested on: HS 578T breast
A549 NSCLC = tested on: A549 NSCLC
SW-620 colon = tested on: SW-620 colon
MOLT-4 leukemia = tested on: MOLT-4 leukemia
TK-10 renal = tested on: TK-10 renal
DU-145 prostate = tested on: DU-145 prostate
EKVX NSCLC = tested on: EKVX NSCLC
HCT-116 colon = tested on: HCT-116 colon
HOP-62 NSCLC = tested on: HOP-62 NSCLC
NCI-H23 lung = tested on: NCI-H23 lung
ACHN renal = tested on: ACHN renal
LOX IMVI melanoma = tested on: LOX IMVI melanoma
CCRF-CEM leukemia = tested on: CCRF-CEM leukemia
HCT-15 colon = tested on: HCT-15 colon
MDA-MB-231 breast = tested on: MDA-MB-231 breast

Which GI50 (U251 CNS) does the source give for `Oc1ccc(CSc2nnc(-c3ccncc3)o2)c2cccnc12` here?
Its GI50 is 0.494 µM.

What about the TGI (U251 CNS) of the same compound?
The TGI was over 100 µM.

What about the GI50 (RPMI-8226 leukemia) of the same compound?
The GI50 was 0.524 µM.

What about the TGI (RPMI-8226 leukemia) of the same compound?
Its TGI is 4.02 µM.

And the GI50 (NCI-H226 lung)?
Its GI50 is 3.6 µM.

And the TGI (NCI-H226 lung)?
Its TGI is over 100 µM.

And the GI50 (RXF 393 renal)?
Its GI50 is 2.41 µM.

What about the TGI (RXF 393 renal) of the same compound?
Its TGI is over 100 µM.

What about the GI50 (NCI/ADR-RES ovarian) of the same compound?
The GI50 was 3.95 µM.

And the TGI (NCI/ADR-RES ovarian)?
Its TGI is over 100 µM.

And the GI50 (SK-OV-3 ovarian)?
Its GI50 is 3.11 µM.

And the TGI (SK-OV-3 ovarian)?
The TGI was 9.81 µM.

What about the GI50 (SK-MEL-5 melanoma) of the same compound?
Its GI50 is 1.03 µM.

What about the TGI (SK-MEL-5 melanoma) of the same compound?
Its TGI is 2.63 µM.

And the GI50 (M14 melanoma)?
Its GI50 is 2.11 µM.

And the TGI (M14 melanoma)?
The TGI was over 100 µM.

What about the GI50 (HCC-2998 colon) of the same compound?
The GI50 was 3.38 µM.

What about the TGI (HCC-2998 colon) of the same compound?
The TGI was over 100 µM.

What about the GI50 (SK-MEL-2 melanoma) of the same compound?
The GI50 was 2.11 µM.

What about the TGI (SK-MEL-2 melanoma) of the same compound?
Its TGI is 7.66 µM.

And the GI50 (COLO 205 colon)?
The GI50 was 4.32 µM.

What about the TGI (COLO 205 colon) of the same compound?
The TGI was over 100 µM.

What about the GI50 (MCF7 breast) of the same compound?
Its GI50 is 0.403 µM.

What about the TGI (MCF7 breast) of the same compound?
Its TGI is over 100 µM.

What about the GI50 (MDA-MB-435) of the same compound?
Its GI50 is 0.613 µM.

And the TGI (MDA-MB-435)?
Its TGI is over 100 µM.

And the GI50 (NCI-H460 lung)?
The GI50 was 0.397 µM.

And the TGI (NCI-H460 lung)?
Its TGI is over 100 µM.

And the GI50 (KM12 colon)?
Its GI50 is 3.9 µM.

What about the TGI (KM12 colon) of the same compound?
Its TGI is over 100 µM.

What about the GI50 (T-47D breast) of the same compound?
The GI50 was 3.08 µM.

What about the TGI (T-47D breast) of the same compound?
Its TGI is over 100 µM.

What about the GI50 (OVCAR-5 ovarian) of the same compound?
The GI50 was 3.54 µM.

And the TGI (OVCAR-5 ovarian)?
Its TGI is over 100 µM.

And the GI50 (SN12C renal)?
Its GI50 is 0.619 µM.

And the TGI (SN12C renal)?
The TGI was 6.13 µM.

What about the GI50 (HOP-92 NSCLC) of the same compound?
Its GI50 is 0.412 µM.

What about the TGI (HOP-92 NSCLC) of the same compound?
The TGI was 2.73 µM.

What about the GI50 (IGROV1 ovarian) of the same compound?
Its GI50 is 3.33 µM.

And the TGI (IGROV1 ovarian)?
Its TGI is over 100 µM.

What about the GI50 (UACC-62 melanoma) of the same compound?
The GI50 was 2.87 µM.

What about the TGI (UACC-62 melanoma) of the same compound?
Its TGI is over 100 µM.

And the GI50 (HT29 colon)?
The GI50 was 3.46 µM.

What about the TGI (HT29 colon) of the same compound?
Its TGI is over 100 µM.

What about the GI50 (SNB-19 CNS) of the same compound?
The GI50 was 1.47 µM.

And the TGI (SNB-19 CNS)?
Its TGI is over 100 µM.

And the GI50 (BT-549 breast)?
Its GI50 is 1.71 µM.

What about the TGI (BT-549 breast) of the same compound?
Its TGI is over 100 µM.

And the GI50 (NCI-H522 lung)?
Its GI50 is 0.558 µM.

What about the TGI (NCI-H522 lung) of the same compound?
Its TGI is over 100 µM.

What about the GI50 (SF-268 CNS) of the same compound?
The GI50 was 2.18 µM.

What about the TGI (SF-268 CNS) of the same compound?
The TGI was over 100 µM.

And the GI50 (PC-3 prostate)?
The GI50 was 0.626 µM.

And the TGI (PC-3 prostate)?
The TGI was 9.34 µM.

What about the GI50 (786-0 renal) of the same compound?
Its GI50 is 3.81 µM.

What about the TGI (786-0 renal) of the same compound?
Its TGI is 70.2 µM.

What about the GI50 (K-562 leukemia) of the same compound?
Its GI50 is 0.622 µM.

And the TGI (K-562 leukemia)?
The TGI was over 100 µM.

What about the GI50 (SF-539 CNS) of the same compound?
Its GI50 is 2.18 µM.

And the TGI (SF-539 CNS)?
The TGI was over 100 µM.

And the GI50 (OVCAR-4 ovarian)?
The GI50 was 3.19 µM.

And the TGI (OVCAR-4 ovarian)?
The TGI was over 100 µM.

And the GI50 (SF-295 CNS)?
The GI50 was 1.75 µM.

And the TGI (SF-295 CNS)?
Its TGI is 8.32 µM.

What about the GI50 (UACC-257 melanoma) of the same compound?
Its GI50 is 2.61 µM.

What about the TGI (UACC-257 melanoma) of the same compound?
Its TGI is 8.38 µM.

What about the GI50 (UO-31 renal) of the same compound?
Its GI50 is 1.83 µM.

And the TGI (UO-31 renal)?
The TGI was over 100 µM.

What about the GI50 (SR leukemia) of the same compound?
The GI50 was 2.21 µM.

And the TGI (SR leukemia)?
The TGI was over 100 µM.

What about the GI50 (SNB-75 CNS) of the same compound?
Its GI50 is 1.52 µM.

And the TGI (SNB-75 CNS)?
The TGI was 25.5 µM.

And the GI50 (OVCAR-8 ovarian)?
Its GI50 is 0.62 µM.

And the TGI (OVCAR-8 ovarian)?
Its TGI is over 100 µM.

And the GI50 (HL-60(TB) leukemia)?
Its GI50 is 2.9 µM.

What about the TGI (HL-60(TB) leukemia) of the same compound?
The TGI was 50.7 µM.

And the GI50 (MALME-3M melanoma)?
The GI50 was 2.03 µM.

And the TGI (MALME-3M melanoma)?
The TGI was 6.88 µM.

And the GI50 (SK-MEL-28 melanoma)?
Its GI50 is 4.37 µM.

What about the TGI (SK-MEL-28 melanoma) of the same compound?
The TGI was over 100 µM.

What about the GI50 (A498 renal) of the same compound?
The GI50 was 2.64 µM.

What about the TGI (A498 renal) of the same compound?
The TGI was 9.52 µM.

What about the GI50 (HS 578T breast) of the same compound?
Its GI50 is 0.751 µM.

What about the TGI (HS 578T breast) of the same compound?
Its TGI is 58.7 µM.

What about the GI50 (A549 NSCLC) of the same compound?
The GI50 was 0.767 µM.

What about the TGI (A549 NSCLC) of the same compound?
Its TGI is over 100 µM.

What about the GI50 (SW-620 colon) of the same compound?
Its GI50 is 1.37 µM.

What about the TGI (SW-620 colon) of the same compound?
Its TGI is over 100 µM.

What about the GI50 (MOLT-4 leukemia) of the same compound?
The GI50 was 3.71 µM.

And the TGI (MOLT-4 leukemia)?
Its TGI is over 100 µM.

And the GI50 (TK-10 renal)?
Its GI50 is 3.36 µM.

And the TGI (TK-10 renal)?
The TGI was over 100 µM.

What about the GI50 (DU-145 prostate) of the same compound?
Its GI50 is 0.779 µM.

And the TGI (DU-145 prostate)?
The TGI was over 100 µM.

And the GI50 (EKVX NSCLC)?
Its GI50 is 2.74 µM.

And the TGI (EKVX NSCLC)?
Its TGI is over 100 µM.

And the GI50 (HCT-116 colon)?
The GI50 was 0.68 µM.

And the TGI (HCT-116 colon)?
The TGI was over 100 µM.

What about the GI50 (HOP-62 NSCLC) of the same compound?
The GI50 was 2.37 µM.

And the TGI (HOP-62 NSCLC)?
Its TGI is over 100 µM.

What about the GI50 (NCI-H23 lung) of the same compound?
The GI50 was 0.951 µM.

What about the TGI (NCI-H23 lung) of the same compound?
Its TGI is over 100 µM.

And the GI50 (ACHN renal)?
Its GI50 is 2.28 µM.

And the TGI (ACHN renal)?
The TGI was 8.31 µM.

What about the GI50 (LOX IMVI melanoma) of the same compound?
Its GI50 is 0.864 µM.

What about the TGI (LOX IMVI melanoma) of the same compound?
Its TGI is over 100 µM.

What about the GI50 (CCRF-CEM leukemia) of the same compound?
The GI50 was 2.53 µM.

And the TGI (CCRF-CEM leukemia)?
The TGI was over 100 µM.

And the GI50 (HCT-15 colon)?
Its GI50 is 2.74 µM.

And the TGI (HCT-15 colon)?
The TGI was over 100 µM.

What about the GI50 (MDA-MB-231 breast) of the same compound?
The GI50 was 1.89 µM.

And the TGI (MDA-MB-231 breast)?
Its TGI is 4.87 µM.
